Broadly, the pIC50 is the negative decadic logarithm of the IC50, by convention in mol/L.

pIC50: −log10 of the molar value. Calls of active or inactive are those of the source. The rule behind the calls is not given here.

Chain of Lysozyme C (Gallus gallus) (P00698 whole entry): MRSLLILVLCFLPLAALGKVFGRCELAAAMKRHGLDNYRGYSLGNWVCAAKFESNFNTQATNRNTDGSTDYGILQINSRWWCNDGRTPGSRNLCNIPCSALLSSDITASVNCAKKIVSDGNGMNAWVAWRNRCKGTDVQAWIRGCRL

Test system in the first data set: not listed separately
The data set can be described thus: Retardation factor of the compound using CHCl3:MeOH (9:1) as solvent system by column chromatography.
Details: not given
The data set is classed as physicochemical.
Regarding `CCCCCCCCCCCCCCCC(=O)C1=C(O)CC(CO)OC1=O` (configuration not stated), the Rf was found to be 0.5.

In another data set the target is T1, Tyrosine-protein phosphatase non-receptor type 1 (Homo sapiens) (UniProt P18031).
T1 sequence (whole entry): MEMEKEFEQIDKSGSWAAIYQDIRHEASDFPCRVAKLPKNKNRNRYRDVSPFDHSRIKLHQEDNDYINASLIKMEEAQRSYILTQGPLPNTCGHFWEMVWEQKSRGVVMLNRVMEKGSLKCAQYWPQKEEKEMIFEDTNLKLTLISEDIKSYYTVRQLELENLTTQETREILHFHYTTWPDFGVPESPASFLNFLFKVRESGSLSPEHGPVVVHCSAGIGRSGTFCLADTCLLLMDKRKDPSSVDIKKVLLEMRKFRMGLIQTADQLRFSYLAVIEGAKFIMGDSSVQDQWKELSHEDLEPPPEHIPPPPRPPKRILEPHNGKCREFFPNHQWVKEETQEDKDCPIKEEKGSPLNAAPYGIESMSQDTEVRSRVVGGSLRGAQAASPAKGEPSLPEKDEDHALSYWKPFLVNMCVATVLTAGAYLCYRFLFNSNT
The data set can be described thus: Binding affinity to 6-His-N-terminal tagged human PTP1B expressed in Escherichia coli BL21 (DE3) cells assessed as protein aggregate formation up to 100 uM after 1 hr by native PAGE analysis.
Details: not given
As to `CCCCCCCCCCCCCCCC(=O)OC1=CC(=O)OC(COCc2ccccc2)C1` (configuration not stated), the result was inactive.

On to `CCCCCCCCCCCCCCCC(=O)C1=C(O)C(CO)OC1=O` (racemic), for which the outcome was Active.

Test system in another data set: not listed separately
The data set can be described thus: Retardation factor of the compound using Hexanes:AcOEt (1:1) as solvent system by column chromatography. The data set is classed as physicochemical.
Details: not given
As for `CCCCCCCCCCCCCCCCCC(=O)C1=C(O)OC(C)(C)OC1=O`, the Rf was 0.51.

The target in another data set is T2, Low molecular weight phosphotyrosine protein phosphatase (Homo sapiens) (UniProt P24666).
T2 sequence (whole entry): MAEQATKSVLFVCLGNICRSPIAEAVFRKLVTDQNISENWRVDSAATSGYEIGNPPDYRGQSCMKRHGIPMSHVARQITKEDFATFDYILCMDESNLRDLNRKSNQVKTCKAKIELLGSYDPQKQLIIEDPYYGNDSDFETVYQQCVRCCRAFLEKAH
The data set can be described thus: Binding affinity to full length 6-His-N-terminal tagged human LMW-PTP expressed in Escherichia coli BL21 (DE3) cells after 3 hrs by tryptophan emission monitoring analysis.
Details: not given
Consider `CCCCCCCCCCCCCCCC(=O)OC1=CC(=O)OC(COCc2ccccc2)C1` (configuration not stated), for which the outcome was Active.

Take `CCCCCCCCCCCCCCCC(=O)C1=C(O)C(CO)OC1=O` (racemic): the outcome was Active.

The target of another data set is T3, Low molecular weight phosphotyrosine protein phosphatase (Homo sapiens, UniProt P24666).
T3 sequence (P24666 whole entry): T2 sequence (whole entry)
The data set can be described thus: Inhibition of full length 6-His-N-terminal tagged human LMW-PTP expressed in Escherichia coli BL21 (DE3) cells assessed as pNP formation using pNPP as substrate incubated for 15 mins prior to substrate addition by plate reader analysis.
Details: not given
For the compound `CCCCCCCCCCCCCCCC(=O)C1=C(O)CC(CO)OC1=O` (configuration not stated), the pIC50 is less than 4.00.

For `CCCCCCCCCCCCCCCCCC(=O)C1=C(O)OC(C)(C)OC1=O`, the pIC50 is 5.28.

As to `CCCCCCCCCCCCCCCC(=O)OC1=CC(=O)OC(COCc2ccccc2)C1` (configuration not stated), the pIC50 is less than 4.00.

Regarding `CCCCCCCCCCCCCCCC(=O)C1=C(O)C(CO)OC1=O` (racemic), the negative-log IC50 (pIC50) was 5.07.

A further data set deals with T2, Low molecular weight phosphotyrosine protein phosphatase (Homo sapiens). The data set can be described thus: Inhibition of full length 6-His-N-terminal tagged human LMW-PTP expressed in Escherichia coli BL21 (DE3) cells assessed as pNP formation using pNPP as substrate at 100 uM by plate reader analysis in presence of 50 mM MgCl2.
Details: not given
With `CCCCCCCCCCCCCCCC(=O)C1=C(O)C(CO)OC1=O` (racemic), the inhibition result was “inactive”.

Test system in the next data set: not listed separately
The data set can be described thus: Retardation factor of the compound using Hexanes:AcOEt (7:3) as solvent system by column chromatography. The data set is classed as physicochemical.
Details: not given
`CCCCCCCCCCCCCCCC(=O)OC1=CC(=O)OC(COCc2ccccc2)C1` (configuration not stated) yielded a Rf of 0.72.

For another data set, the target named is T1, Tyrosine-protein phosphatase non-receptor type 1 (Homo sapiens). The note with it: BL21-DE3, 5 uM.
Description: Reversible inhibition of 6-His-N-terminal tagged human PTP1B expressed in Escherichia coli BL21 (DE3) cells using pNPP as substrate at 5 uM incubated for 15 mins prior to substrate addition measured after drug wash out by plate reader analysis
Regarding `CCCCCCCCCCCCCCCC(=O)C1=C(O)C(CO)OC1=O` (racemic), the inhibition entry was “Active”.

The next data set concerns the target T4, M-phase inducer phosphatase 2 (Homo sapiens) (UniProt P30305).
T4 sequence (whole entry): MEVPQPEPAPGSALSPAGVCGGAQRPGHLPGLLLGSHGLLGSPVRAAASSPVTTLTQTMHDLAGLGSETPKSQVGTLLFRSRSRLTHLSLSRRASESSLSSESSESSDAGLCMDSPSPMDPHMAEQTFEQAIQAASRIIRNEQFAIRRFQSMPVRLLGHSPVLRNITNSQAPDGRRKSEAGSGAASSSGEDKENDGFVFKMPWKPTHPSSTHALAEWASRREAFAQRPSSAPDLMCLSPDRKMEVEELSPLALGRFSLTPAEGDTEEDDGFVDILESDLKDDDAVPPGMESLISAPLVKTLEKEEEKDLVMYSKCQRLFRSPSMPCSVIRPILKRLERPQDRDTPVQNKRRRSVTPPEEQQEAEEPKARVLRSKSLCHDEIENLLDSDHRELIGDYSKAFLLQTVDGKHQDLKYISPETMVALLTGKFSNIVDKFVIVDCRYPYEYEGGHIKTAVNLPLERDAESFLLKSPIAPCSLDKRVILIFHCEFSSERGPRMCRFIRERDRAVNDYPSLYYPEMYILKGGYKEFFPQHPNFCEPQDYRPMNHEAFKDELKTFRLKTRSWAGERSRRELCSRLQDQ
The data set can be described thus: Inhibition of 6-His-N-terminal tagged human CDC-25B isoform 3 catalytic domain expressed in Escherichia coli BL21 (DE3) cells assessed as pNP formation using pNPP as substrate at 100 uM by plate reader analysis in presence of 50 mM MgCl2.
Details: not given
On to `CCCCCCCCCCCCCCCC(=O)C1=C(O)C(CO)OC1=O` (racemic), for which the inhibition entry was “inactive”.

The target of a further data set is T2, Low molecular weight phosphotyrosine protein phosphatase (Homo sapiens). The data set can be described thus: Mixed type of inhibition of full length 6-His-N-terminal tagged human LMW-PTP expressed in Escherichia coli BL21 (DE3) cells using pNPP as substrate by Lineweaver-Burk plot analysis.
Details: not given
Regarding `CCCCCCCCCCCCCCCC(=O)C1=C(O)CC(CO)OC1=O` (configuration not stated), the inhibition entry was “Active”.

As for `CCCCCCCCCCCCCCCC(=O)C1=C(O)C(CO)OC1=O` (racemic), the inhibition result is “Active”.

A further data set deals with Albumin (Bos taurus, UniProt P02769). The data set can be described thus: Binding affinity to bovine serum albumin after 3 hrs by tryptophan emission monitoring analysis. The following applies: cattle.
Chain of Albumin (P02769 whole entry): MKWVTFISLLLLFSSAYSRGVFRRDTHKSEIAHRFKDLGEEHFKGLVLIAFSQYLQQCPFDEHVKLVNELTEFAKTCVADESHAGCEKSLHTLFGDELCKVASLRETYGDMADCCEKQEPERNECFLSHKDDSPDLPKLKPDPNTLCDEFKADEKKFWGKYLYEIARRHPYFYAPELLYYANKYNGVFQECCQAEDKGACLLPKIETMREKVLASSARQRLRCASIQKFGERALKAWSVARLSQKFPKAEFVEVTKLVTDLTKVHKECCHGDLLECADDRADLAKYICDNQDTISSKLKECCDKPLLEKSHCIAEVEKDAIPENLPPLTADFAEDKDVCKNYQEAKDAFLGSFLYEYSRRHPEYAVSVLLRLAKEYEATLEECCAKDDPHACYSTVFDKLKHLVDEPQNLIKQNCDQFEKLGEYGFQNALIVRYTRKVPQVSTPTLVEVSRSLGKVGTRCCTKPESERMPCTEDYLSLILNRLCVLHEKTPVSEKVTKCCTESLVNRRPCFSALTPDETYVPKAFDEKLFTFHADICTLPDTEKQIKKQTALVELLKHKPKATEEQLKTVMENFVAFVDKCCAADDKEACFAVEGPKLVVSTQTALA
Turning to `CCCCCCCCCCCCCCCC(=O)OC1=CC(=O)OC(COCc2ccccc2)C1` (configuration not stated), the outcome was Active.

As for `CCCCCCCCCCCCCCCC(=O)C1=C(O)C(CO)OC1=O` (racemic), the outcome was Active.

Another data set has as its target Lysozyme C (Gallus gallus) (UniProt P00698). The data set can be described thus: Binding affinity to hen egg lysozyme after 3 hrs by tryptophan emission monitoring analysis.
Details: not given
For the compound `CCCCCCCCCCCCCCCC(=O)OC1=CC(=O)OC(COCc2ccccc2)C1` (configuration not stated), the result was Active.

As for `CCCCCCCCCCCCCCCC(=O)C1=C(O)C(CO)OC1=O` (racemic), the outcome was Active.

Another data set addresses T5, Tyrosine-protein phosphatase non-receptor type 1 (Homo sapiens, UniProt P18031).
T5 sequence (P18031 whole entry): T1 sequence (whole entry)
The data set can be described thus: Inhibition of 6-His-N-terminal tagged human PTP1B expressed in Escherichia coli BL21 (DE3) cells assessed as pNP formation using pNPP as substrate incubated for 15 mins prior to substrate addition by plate reader analysis.
Details: not given
`CCCCCCCCCCCCCCCC(=O)C1=C(O)CC(CO)OC1=O` (configuration not stated): the pIC50 was 4.81.

Take `CCCCCCCCCCCCCCCCCC(=O)C1=C(O)OC(C)(C)OC1=O`: the pIC50 is 6.22.

In the case of `CCCCCCCCCCCCCCCC(=O)OC1=CC(=O)OC(COCc2ccccc2)C1` (configuration not stated), the pIC50 was 5.09.

`CCCCCCCCCCCCCCCC(=O)C1=C(O)C(CO)OC1=O` (racemic): the pIC50 was 6.15.

Another data set addresses T1, Tyrosine-protein phosphatase non-receptor type 1 (Homo sapiens). The data set can be described thus: Binding affinity to 6-His-N-terminal tagged human PTP1B expressed in Escherichia coli BL21 (DE3) cells after 3 hrs by tryptophan emission monitoring analysis.
Details: not given
For the compound `CCCCCCCCCCCCCCCC(=O)OC1=CC(=O)OC(COCc2ccccc2)C1` (configuration not stated), the outcome was Active.

As to `CCCCCCCCCCCCCCCC(=O)C1=C(O)C(CO)OC1=O` (racemic), the outcome was Active.

A further data set has as its target T2, Low molecular weight phosphotyrosine protein phosphatase (Homo sapiens). The data set can be described thus: Binding affinity to full length 6-His-N-terminal tagged human LMW-PTP expressed in Escherichia coli BL21 (DE3) cells assessed as protein aggregate formation up to 100 uM after 1 hr by native PAGE analysis.
Details: not given
In the case of `CCCCCCCCCCCCCCCC(=O)OC1=CC(=O)OC(COCc2ccccc2)C1` (configuration not stated), the result was inactive.

For `CCCCCCCCCCCCCCCC(=O)C1=C(O)C(CO)OC1=O` (racemic), the outcome was Active.

The next data set concerns the target T6, M-phase inducer phosphatase 2 (Homo sapiens, UniProt P30305).
T6 sequence (P30305 whole entry): T4 sequence (whole entry)
The data set can be described thus: Inhibition of 6-His-N-terminal tagged human CDC-25B isoform 3 catalytic domain expressed in Escherichia coli BL21 (DE3) cells assessed as pNP formation using pNPP as substrate incubated for 15 mins prior to substrate addition by plate reader analysis.
Details: not given
In the case of `CCCCCCCCCCCCCCCC(=O)C1=C(O)CC(CO)OC1=O` (configuration not stated), the pIC50 was 4.87.

`CCCCCCCCCCCCCCCCCC(=O)C1=C(O)OC(C)(C)OC1=O`: the pIC50 is 5.19.

As for `CCCCCCCCCCCCCCCC(=O)OC1=CC(=O)OC(COCc2ccccc2)C1` (configuration not stated), the pIC50 is less than 4.00.

Take `CCCCCCCCCCCCCCCC(=O)C1=C(O)C(CO)OC1=O` (racemic): the pIC50 was 4.91.

In another data set the target is T1, Tyrosine-protein phosphatase non-receptor type 1 (Homo sapiens). The data set can be described thus: Mixed type of inhibition of 6-His-N-terminal tagged human PTP1B expressed in Escherichia coli BL21 (DE3) cells using pNPP as substrate by Lineweaver-Burk plot analysis.
Details: not given
Consider `CCCCCCCCCCCCCCCC(=O)C1=C(O)CC(CO)OC1=O` (configuration not stated), for which the inhibition result is “Active”.

For the compound `CCCCCCCCCCCCCCCC(=O)C1=C(O)C(CO)OC1=O` (racemic), the inhibition result is “Active”.

For the next data set the target is unchanged. The data set can be described thus: Inhibition of 6-His-N-terminal tagged human PTP1B expressed in Escherichia coli BL21 (DE3) cells assessed as pNP formation using pNPP as substrate incubated for 15 mins prior to substrate addition by plate reader analysis in presence of 25 mM ammonium sulfate.
Details: not given
For the compound `CCCCCCCCCCCCCCCC(=O)C1=C(O)C(CO)OC1=O` (racemic), the inhibition result is “inactive”.

A further data set has the same target. The data set can be described thus: Time-dependent inhibition of 6-His-N-terminal tagged human PTP1B expressed in Escherichia coli BL21 (DE3) cells using pNPP as substrate treated with compound prior to substrate addition by plate reader analysis. The following applies: TDE = time-dependent effect.
As for `CCCCCCCCCCCCCCCC(=O)C1=C(O)CC(CO)OC1=O` (configuration not stated), the inhibition entry is “tde”.

Turning to `CCCCCCCCCCCCCCCC(=O)C1=C(O)C(CO)OC1=O` (racemic), the inhibition entry is “tde”.
